{
  "source": "patent US6432671B1",
  "about": "(priority 1996, dated 2002)",
  "system": "tryparedoxin I",
  "format": "biochemical, Crithidia fasciculata",
  "data": [
    {"smiles": "CCN1C(=O)C=CC1=O", "note": "[NEM, N-ethylmaleimide]", "values": [
      {"measurement": "residual activity [%]", "result": "24 ± 5", "unit": "%"}
    ]}
  ]
}
